Source: ChEMBL document CHEMBL5050844 (2019)

What was measured:
[1] = Induction of anti-CD3 antibodies-stimulated human T cell activation at 8 uM assessed fold increase in IL-2 secretion measured by ELISA assay; assay type: functional, T cell line; also: reference of the scale not given here
[2] = Induction of anti-CD3/CD28 antibodies-stimulated human T cell activation at 4 uM assessed fold increase in CD25 expression measured by ELISA assay; assay type: functional, T cell line
[3] = Induction of anti-CD3 antibodies-stimulated human T cell activation at 1 uM assessed fold increase in IL-2 secretion measured by ELISA assay; assay type: functional, T cell line; also: reference of the scale not given here
[4] = molecular target: E3 ubiquitin-protein ligase CBL-B (Homo sapiens, UniProt Q13191); experiment: Inhibition of N-terminal Avi-tagged human CBL-B (36 to 427 residues) incubated with 60 nM Src kinase for 1.5 hrs followed by incubation with fluorescently labeled UbcH5B-Ub for 1 hr and measured by TR-FRET assay; assay type: single protein
[5] = Induction of anti-CD3/CD28 antibodies-stimulated human T cell activation at 0.3 uM assessed fold increase in CD25 expression measured by ELISA assay; assay type: functional, T cell line
[6] = Induction of anti-CD3/CD28 antibodies-stimulated human T cell activation at 4 uM assessed fold increase in IL-2 secretion measured by ELISA assay; assay type: functional, T cell line
[7] = Induction of anti-CD3/CD28 antibodies-stimulated human T cell activation at 1 uM assessed fold increase in IL-2 secretion measured by ELISA assay; assay type: functional, T cell line
[8] = Induction of anti-CD3/CD28 antibodies-stimulated human T cell activation at 0.3 uM assessed fold increase in IL-2 secretion measured by ELISA assay; assay type: functional, T cell line
[9] = Induction of anti-CD3/CD28 antibodies-stimulated human T cell activation at 1 uM assessed fold increase in CD25 expression measured by ELISA assay; assay type: functional, T cell line
[10] = Induction of anti-CD3 antibodies-stimulated human T cell activation at 1 uM assessed fold increase in CD25 expression measured by ELISA assay; assay type: functional, T cell line; also: reference of the scale not given here
[11] = Induction of anti-CD3 antibodies-stimulated human T cell activation at 8 uM assessed fold increase in CD25 expression measured by ELISA assay; assay type: functional, T cell line; also: reference of the scale not given here

Chain of E3 ubiquitin-protein ligase CBL-B (Q13191 whole entry, the tested form may be a part): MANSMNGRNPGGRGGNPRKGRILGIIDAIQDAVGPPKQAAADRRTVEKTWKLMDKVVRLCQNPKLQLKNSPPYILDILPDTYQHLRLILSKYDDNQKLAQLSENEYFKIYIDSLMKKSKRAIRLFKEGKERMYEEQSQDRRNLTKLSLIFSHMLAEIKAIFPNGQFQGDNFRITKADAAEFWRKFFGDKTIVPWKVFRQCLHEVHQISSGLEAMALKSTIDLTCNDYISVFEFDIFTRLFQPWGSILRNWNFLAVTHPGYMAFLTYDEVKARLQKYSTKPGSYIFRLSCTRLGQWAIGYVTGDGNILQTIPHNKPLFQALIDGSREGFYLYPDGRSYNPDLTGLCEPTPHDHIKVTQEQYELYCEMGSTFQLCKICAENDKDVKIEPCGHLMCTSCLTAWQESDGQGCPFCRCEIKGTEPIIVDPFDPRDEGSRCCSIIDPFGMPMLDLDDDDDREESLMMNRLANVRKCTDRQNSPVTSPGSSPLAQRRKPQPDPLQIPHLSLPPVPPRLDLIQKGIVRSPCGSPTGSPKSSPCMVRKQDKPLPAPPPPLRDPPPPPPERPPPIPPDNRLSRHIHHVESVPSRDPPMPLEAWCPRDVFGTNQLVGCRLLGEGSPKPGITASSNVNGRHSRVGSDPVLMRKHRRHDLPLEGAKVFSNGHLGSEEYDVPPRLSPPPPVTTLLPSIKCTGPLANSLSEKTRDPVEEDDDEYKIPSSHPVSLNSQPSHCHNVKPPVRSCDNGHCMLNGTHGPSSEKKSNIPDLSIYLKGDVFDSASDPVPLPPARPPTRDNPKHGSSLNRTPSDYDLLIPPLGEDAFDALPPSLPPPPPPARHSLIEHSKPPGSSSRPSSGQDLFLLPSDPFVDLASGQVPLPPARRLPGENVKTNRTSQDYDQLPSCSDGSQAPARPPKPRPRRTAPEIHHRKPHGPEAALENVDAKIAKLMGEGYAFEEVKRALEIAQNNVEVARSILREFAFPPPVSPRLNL

| Compound | fold change (FC) [1] | fold change (FC) [2] | fold change (FC) [3] | IC50 [4] [nM] | fold change (FC) [5] | fold change (FC) [6] | fold change (FC) [7] | fold change (FC) [8] | fold change (FC) [9] | fold change (FC) [10] | fold change (FC) [11] |
| --- | --- | --- | --- | --- | --- | --- | --- | --- | --- | --- | --- |
| CC(c1cc2c(c(C(F)(F)F)c1)CN(c1cccc([C@H]3C[C@H]3c3nncn3C)c1)C2=O)N1CC[C@H](F)C1 (stereo not given in full) | >=0.201 | 1.51 | >=0.201 | < 100 | 1.31 | >=7.5 | >=7.5 | 2.51 | 1.51 | >=1.001 | >=1.001 |
| Cn1cnnc1CC1(c2cccc(N3Cc4c(cc(CN5CCCC5=O)cc4C(F)(F)F)C3=O)c2)COC1 | >=0.201 | 1.01 | 0.151 | < 100 | 1.01 | 2.51 | 1.01 | 1.01 | 1.01 | >=1.001 | >=1.001 |
| C[C@@H](c1cccc(N2Cc3c(cccc3C(F)(F)F)C2=O)c1)[C@@H](F)c1nncn1C (single isomer, unassigned) | >=0.201 | 1.01 | 0.051 | < 100 | 1.01 | 2.51 | 1.01 | 1.01 | 1.01 | 0.601 | >=1.001 |
| C[C@H](Cc1nncn1C)c1cccc(N2Cc3c(cc([C@H](C)N4CC[C@H](F)C4)cc3C(F)(F)F)C2=O)c1 | >=0.201 | 1.31 | >=0.201 | < 100 | 1.31 | >=7.5 | >=7.5 | >=7.5 | 1.31 | >=1.001 | >=1.001 |
| C[C@H](Sc1nncn1C)c1cccc(NC(=O)c2cccc(C3CC3)n2)c1 | 0.151 | 1.51 | 0.051 | < 100 | 1.31 | 2.51 | 2.51 | 1.01 | 1.51 | <=0.6 | 0.801 |
| C[C@H](Cc1nncn1C)c1cccc(NC(=O)c2cccc(C(F)(F)F)n2)c1 | >=0.201 | >=1.76 | >=0.201 | < 100 | >=1.76 | >=7.5 | 5 | 2.51 | >=1.76 | >=1.001 | >=1.001 |
| Cn1cnnc1CC1(c2cccc(N3Cc4c(cc(CN5CC(C)(C#N)C5)cc4C(F)(F)F)C3=O)c2)COC1 | 0.051 | 1.51 | 0.151 | < 100 | 1.01 | >=7.5 | >=7.5 | 2.51 | 1.31 | 0.601 | <=0.6 |
| C[C@H](Cc1nncn1C)c1cc(OCC(F)F)nc(N2Cc3c(cccc3C(F)(F)F)C2=O)c1 | >=0.201 | 1.31 | 0.151 | < 100 | 1.01 | >=7.5 | 2.51 | 2.51 | 1.01 | 0.801 | >=1.001 |
| Cc1cc(C(=O)Nc2cccc(C3(Cc4nncn4C)COC3)c2)nc(C2CC2)c1 | >=0.201 | 1.51 | >=0.201 | < 100 | 1.31 | >=7.5 | >=7.5 | 5 | 1.31 | >=1.001 | >=1.001 |
| C[C@H](Cc1nncn1C)c1cccc(N2Cc3c(cc(C4CC4)cc3C(F)(F)F)C2=O)c1 | >=0.201 | 1.31 | >=0.201 | < 100 | 1.01 | 2.51 | 1.01 | 1.01 | 1.01 | 0.801 | >=1.001 |
| C[C@H]1CN(C)CCN1c1cc2c(c(C(F)(F)F)c1)CN(c1cccc([C@@](C)(F)C(F)(F)c3nncn3C)c1)C2=O | >=0.201 | 1.31 | 0.101 | < 100 | 1.01 | >=7.5 | 5 | 1.01 | 1.01 | >=1.001 | >=1.001 |
| Cn1cnnc1[C@@H]1C[C@@H]1c1cccc(N2Cc3c(cc(CN4CC[C@H](F)C4)cc3C(F)(F)F)C2=O)c1 | >=0.201 | 1.51 | >=0.201 | < 100 | 1.31 | >=7.5 | >=7.5 | 2.51 | 1.31 | >=1.001 | >=1.001 |
| Cn1cnnc1CC1(c2cccc(N3Cc4c(cccc4C(F)(F)F)C3=O)c2)COC1 | 0.101 | 1.31 | 0.051 | < 100 | 1.01 | >=7.5 | 2.51 | 1.01 | 1.01 | 0.801 | >=1.001 |
| C[C@H](Sc1nncn1C)c1cccc(NC(=O)c2ccc(CO)c(C3CC3)n2)c1 | 0.101 | 1.31 | <=0.05 | < 100 | 1.01 | 5 | 2.51 | 1.01 | 1.01 | <=0.6 | 0.801 |
| Cn1cnnc1CC1(c2cccc(N3Cc4c(cc(CN5CC(C)(F)C5)cc4C(F)(F)F)C3=O)c2)COC1 | >=0.201 | 1.51 | >=0.201 | < 100 | 1.31 | >=7.5 | >=7.5 | >=7.5 | 1.51 | >=1.001 | >=1.001 |
